The values below come from paper PMC4757417, “Functional and Structural Analysis of a β-Glucosidase Involved in β-1,2-Glucan Metabolism in Listeria innocua” (PLoS ONE, 2016).

Read-outs that look alike come from different tables or passages of the source.

In experiment [1] the target is Aspergillus aculeatus BGL1 (AaBGL1). More on the design: method as in PMID 23537284. The conditions noted are these: cited from earlier work.
The target of experiment [2] is T1, Lin1840r (Listeria innocua, UniProt Q92AS9). Put plainly: Inhibition kinetics of hydrolytic activity toward pNP-β-Glc. In kind it is biochemical. As to conditions: substrate pNP-β-Glc.
T1 sequence (Q92AS9 entry or part of it): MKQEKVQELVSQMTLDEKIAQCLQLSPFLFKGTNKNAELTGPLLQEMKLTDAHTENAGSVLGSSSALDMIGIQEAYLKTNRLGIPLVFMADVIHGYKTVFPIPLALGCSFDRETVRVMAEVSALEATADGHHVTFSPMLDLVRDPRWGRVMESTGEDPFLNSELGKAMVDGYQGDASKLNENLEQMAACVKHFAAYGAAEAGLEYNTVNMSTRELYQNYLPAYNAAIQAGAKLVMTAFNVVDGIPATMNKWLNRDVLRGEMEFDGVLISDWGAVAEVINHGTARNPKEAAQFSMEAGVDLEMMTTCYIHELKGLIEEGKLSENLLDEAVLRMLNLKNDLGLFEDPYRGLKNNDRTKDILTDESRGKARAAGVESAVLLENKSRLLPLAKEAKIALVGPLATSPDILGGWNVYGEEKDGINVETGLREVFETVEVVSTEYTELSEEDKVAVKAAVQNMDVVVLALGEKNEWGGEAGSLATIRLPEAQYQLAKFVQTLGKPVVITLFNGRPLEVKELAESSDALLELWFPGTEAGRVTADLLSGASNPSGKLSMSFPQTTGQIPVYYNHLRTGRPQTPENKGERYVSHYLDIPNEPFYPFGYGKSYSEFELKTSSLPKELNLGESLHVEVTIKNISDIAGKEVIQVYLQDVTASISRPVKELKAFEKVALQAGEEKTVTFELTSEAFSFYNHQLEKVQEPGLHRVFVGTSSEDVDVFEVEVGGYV
Experiment [3] addresses T1, Lin1840r. Put plainly: Kinetic analysis of hydrolysis of β-linked gluco-oligosaccharides and pNP-β-Glc by WT Lin1840r. The class given is biochemical. As to conditions: for kcat relative to that for Sop2 / kcat relative to those for Sop2 and Lam2 / kcat/Km relative to that for Sop2: WT Lin1840r; for specific activity: Lin1840r, 0.1 mM substrate at 20°C.
The subject of a further experiment is Lin1840r E473A mutant. Put plainly: Hydrolytic activity of E473A mutant toward pNP-β-Glc.
Experiment [4] relates to JMB19063 (metagenomic GH3 β-glucosidase from compost). More on the design: method as in PMID 23580647. The conditions noted are these: 0.1 mM substrate, Cel2 at 50°C, estimated from the substrate consumption; cited from earlier work.
The test system of experiment [5] is Flavobacterium meningosepticum GH3 β-glucosidase (FmBGL). More on the design: method as in PMID 11851422. As to conditions: cited from earlier work.
In another experiment the test system is Lin1840r D270A mutant. Put plainly: Hydrolytic activity of D270A mutant toward pNP-β-Glc.

The term Ki denotes the dissociation constant of the complex between target and ligand, obtained from inhibition or displacement. For the molecule `OC[C@H]1NC[C@H](O)[C@@H](O)[C@@H]1O` [DNJ, 1-deoxynojirimycin], the values for the inhibition constant (Ki) (in experiment [1]; at Lin1840r [2] (Ki)) were 2.4 µM and 290 µM, respectively.

In the case of `OC[C@H]1CNC[C@@H](O)[C@@H]1O` [IFG, isofagomine D-tartrate], the values for the Ki (in experiment [1]; on Lin1840r [2] (read-out: Ki)) were 14 µM and 4.1 µM, respectively.

For `OC[C@H]1O[C@@H](O[C@H]2[C@H](O[C@H]3[C@H](O[C@H]4C(O)O[C@H](CO)[C@@H](O)[C@@H]4O)O[C@H](CO)[C@@H](O)[C@@H]3O)O[C@H](CO)[C@@H](O)[C@@H]2O)[C@H](O)[C@@H](O)[C@@H]1O` (stereo partly shown) [Sop4], the “kcat relative to that for Sop2” value on Lin1840r [3] is listed as “less than one-tenth”.

Take `OC[C@H]1O[C@@H](O[C@H]2[C@H](O[C@H]3[C@H](O[C@H]4[C@H](O[C@H]5C(O)O[C@H](CO)[C@@H](O)[C@@H]5O)O[C@H](CO)[C@@H](O)[C@@H]4O)O[C@H](CO)[C@@H](O)[C@@H]3O)O[C@H](CO)[C@@H](O)[C@@H]2O)[C@H](O)[C@@H](O)[C@@H]1O` (stereo partly shown) [Sop5]: the “kcat relative to that for Sop2” value on Lin1840r [3] is on record as “less than one-tenth”.

One may read the Km as the concentration of substrate that gives half-maximal velocity. Broadly, the kcat is the number of substrate molecules converted per active site and unit of time at saturation. For the molecule `O=[N+]([O-])c1ccc(O[C@@H]2O[C@H](CO)[C@@H](O)[C@H](O)[C@H]2O)cc1` [pNP-β-Glc, p-nitrophenyl-β-D-glucopyranoside], the hydrolytic activity result in the experiment on Lin1840r E473A mutant and in the experiment with Lin1840r D270A mutant was “no detectable hydrolytic activity” each time. Also, the specific activity is 11.8 U/mg in experiment [4] and 1.12 U/mg on Lin1840r [3]. Besides, in experiment [5], the Km is 490 µM. For the same molecule, the kcat in experiment [5] was 39.1 s⁻¹.

On to cellobiose [Cel2], for which the specific activity in experiment [4] is 0.077 U/mg. Moreover, in experiment [5] (judged from preliminary results), the “activity lower than toward pNP-β-Glc” value is “at least 100 times”. Besides, on Lin1840r [3], the specific activity was 8.9 × 10^−4 U/mg; the “kcat relative to those for Sop2 and Lam2” value is “less than 1%”; the “kcat/Km relative to that for Sop2” value was “less than 0.05%”.

For the molecule gentiobiose [Gen2], on Lin1840r [3], the “kcat relative to those for Sop2 and Lam2” value is on record as “less than 1%”; the “kcat/Km relative to that for Sop2” value is “less than 0.05%”.
